pIC50: −log10 of the molar value. Where a name gives a salt, the structure may show the parent alone.
What follows are compounds tested against MCH receptor (Homo sapiens, UniProt Q99705) (assay: High throughput functional screening FLIPR/FDSS6000 (intracellular Ca2+ evoked by MCH)). Details: FLIPR/FDSS, antagonist activity vs 50 nM MCH; class by percent of control at 10^−7 M or IC50; table after the classification; read-out: class.
Format: cell-based
Text: High Throughput Functional Screening: FLIPR™
This assay utilized a non-endogenous, constitutively active version of the MCH receptor.
The concentration of free Ca^2+ in the cytosol of any cell is extremely low, whereas its concentration in the extracellular fluid and endoplasmic reticulum (ER) is very high. Thus, there is a large gradient tending to drive Ca^2+ into the cytosol across both the plasma membrane and ER. The FLIPR™ and FDSS6000™ systems (Molecular Devices Corporation, […] Photonics K.K.) are designed to perform functional cell-based assays, such as the measurement of intracellular calcium for high-throughput screening. The measurement of fluorescent is associated with calcium release upon activation of the Gq-coupled receptors.
Fluorometric Imaging Plate Reader system was used to allow for rapid, kinetic measurements of intracellular fluorescence in 96 well microplates (or 384 well microplates). Simultaneous measurements of fluorescence in all wells can be made by FLIPR or FDSS6000™ every second with high sensitivity and precision. These systems are ideal for measuring cell-based functional assays such as monitoring the intracellular calcium fluxes that occur within seconds after activation of the Gq coupled receptor.
Briefly, the cells are seeded into 96 well at 5.5×10^4 cells/well with complete culture media (Dulbecco's Modified Eagle Medium with 10% fetal bovine serum, 2 mM L-glutamine, 1 mM sodium pyruvate and 0.5 mg/ml G418, pH 7.4) for the assay next day. On the day of assay, the media is removed and the cells are incubated with 100 μl of loading buffer (4 μM Fluo4-AM in complete culture media containing 2.5 mM Probenicid, 0.5 mg/ml and 0.2% bovine serum albumin) in 5% CO2 incubator at 37° C. for 1 hr. The loading buffer is removed, and the cells are washed with wash buffer (Hank's Balanced Salt Solution containing 2.5 mM Probenicid, 20 mM HEPES, 0.5 mg/ml and 0.2% bovine serum albumin, pH 7.4)). One hundred fifty μl of wash buffer containing various concentrations of test compound is added to the cells, and the cells are incubated in 5% CO2 incubator at 37° C. for 30 min. […] 530 nm for 290 second. When antagonist activity of compound is tested, 50 nM of MCH is used.
Use of FLIPR™ and FDSS6000™ can be accomplished by following manufacturer's instruction (Molecular Device Corporation and […] Photonics K.K.).

pIC50	Compound
< 6.70	CN(C)c1nc(N[C@H]2CC[C@@H](NCc3ccc(Br)cc3OC(F)(F)F)CC2)nc2c1CCCC2 [Example 13, N^2-[cis-4-(4-Bromo-2-trifluoromethoxy-benzyl)-amino-cyclobexyl]-N^4,N^4-dimethyl-5,6,7,8-tetrahydro-quinazoline-2,4-diamine dihydrochloride]
> 7.30	CN(C)c1nc(N[C@H]2CC[C@@H](NCCc3ccc(Br)cc3OC(F)(F)F)CC2)nc2c1CCCC2 [Example 14, N^2-{cis-4-[2-(4-Bromo-2-trifluoromethoxy-phenyl)-ethylamino]-cyclohexyl}-N^4,N^4-dimethyl-5,6,7,8-tetrahydro-quinazoline-2,4-diamine dihydrochloride]
6.70 to 7.30	CN(C)c1ccnc(N[C@H]2CC[C@@H](NCc3ccc(Br)cc3OC(F)(F)F)CC2)n1 [Example 17, N^2-[cis-4-(4-Bromo-2-trifluoromethoxy-benzyl)-amino-cyclohexyl]-N^4,N^4-dimethyl-pyrimidin-2,4-diamine dihydrochloride]
> 7.30	CN(C)c1ccnc(N[C@H]2CC[C@@H](NCCc3ccc(Br)cc3OC(F)(F)F)CC2)n1 [Example 18, N^2-{cis-4-[2-(4-Bromo-2-trifluoromethoxy-phenyl)-ethylamino]-cyclohexyl}-N^4,N^4-dimethyl-pyrimidine-2,4-diamine dihydrochloride]
> 7.30	O=C(N[C@H]1CC[C@@H](Nc2ccc3ccccc3n2)CC1)c1ccc(F)c(F)c1 [Example 3031, 3,4-Difluoro-N-[cis-4-(quinolin-2-ylamino)-cyclohexyl]-benzamide hydrochloride]
> 7.30	O=C(N[C@H]1CC[C@@H](Nc2ccc3ccccc3n2)CC1)c1cccnc1Oc1ccccc1 [Example 3032, 2-Phenoxy-N-[cis-4-(quinolin-2-ylamino)-cyclohexyl]-nicotinamide hydrochloride]
> 7.30	Cc1cccc(C(=O)N[C@H]2CC[C@@H](Nc3ccc4ccccc4n3)CC2)c1 [Example 3033, 3-Methyl-N-[cis-4-(quinolin-2-ylamino)-cyclohexyl]-benzamide hydrochloride]
> 7.30	O=C(N[C@H]1CC[C@@H](Nc2ccc3ccccc3n2)CC1)c1cccc(Cl)c1 [Example 3035, 3-Chloro-N-[cis-4-(quinolin-2-ylamino)-cyclohexyl]-benzamide hydrochloride]
> 7.30	O=C(N[C@H]1CC[C@@H](Nc2ccc3ccccc3n2)CC1)c1csc([N+](=O)[O-])c1 [Example 3036, 5-Nitro-thiophene-3-carboxylic acid [cis-4-(quinolin-2-ylamino)-cyclohexyl]-amide hydrochloride]
< 6.70	O=C(N[C@H]1CC[C@@H](Nc2ccc3ccccc3n2)CC1)c1cccnc1Cl [Example 3037, 2-Chloro-N-[cis-4-(quinolin-2-ylamino)-cyclohexyl]-nicotinamide hydrochloride]
> 7.30	O=C(N[C@H]1CC[C@@H](Nc2ccc3ccccc3n2)CC1)c1ccc(F)c(Cl)c1 [Example 3038, 3-Chloro-4-fluoro-N-[cis-4-(quinolin-2-ylamino)-cyclohexyl]-benzamide hydrochloride]
> 7.30	COc1cc(OC)cc(C(=O)N[C@H]2CC[C@@H](Nc3ccc4ccccc4n3)CC2)c1 [Example 3039, 3,5-Dimethoxy-N-[cis-4-(quinolin-2-ylamino)-cyclohexyl]-benzamide hydrochloride]
> 7.30	O=C(N[C@H]1CC[C@@H](Nc2ccc3ccccc3n2)CC1)c1ccc(Cl)c(Cl)c1 [Example 3040, 3,4-Dichloro-N-[cis-4-(quinolin-2-ylamino)-cyclohexyl]-benzamide hydrochloride]
> 7.30	O=C(N[C@H]1CC[C@@H](Nc2ccc3ccccc3n2)CC1)c1ccc2nonc2c1 [Example 3041, Benzo[2,1,3]oxadiazole-5-carboxylic acid-[cis-4-(quinolin-2-ylamino)-cyclohexyl]-amide hydrochloride]
> 7.30	Cn1cc([N+](=O)[O-])cc1C(=O)N[C@H]1CC[C@@H](Nc2ccc3ccccc3n2)CC1 [Example 3042, 1-Methyl-4-nitro-1H-pyrrole-2-carboxylic acid [cis-4-(quinolin-2-ylamino)-cyclohexyl]-amide hydrochloride]
> 7.30	O=C(N[C@H]1CC[C@@H](Nc2ccc3ccccc3n2)CC1)C1c2ccccc2Oc2ccccc21 [Example 3043, 9H-Xanthene-9-carboxylic acid [cis-4-(quinolin-2-ylamino)-cyclohexyl]-amide hydrochloride]
6.70 to 7.30	O=C(N[C@H]1CC[C@@H](Nc2ccc3ccccc3n2)CC1)c1ccc(-c2ccc(Cl)cc2)o1 [Example 3044, 5-(4-Chloro-phenyl)-furan-2-carboxylic acid [cis-4-(quinolin-2-ylamino)-cyclohexyl]-amide hydrochloride]
> 7.30	O=C(N[C@H]1CC[C@@H](Nc2ccc3ccccc3n2)CC1)c1cccc([N+](=O)[O-])c1 [Example 3045, 3-Nitro-N-[cis-4-(quinolin-2-ylamino)-cyclohexyl]-benzamide hydrochloride]
> 7.30	Cc1cc(C(=O)N[C@H]2CC[C@@H](Nc3ccc4ccccc4n3)CC2)ccc1F [Example 3046, 4-Fluoro-3-methyl-N-[cis-4-(quinolin-2-ylamino)-cyclohexyl]-benzamide hydrochloride]
> 7.30	O=C(N[C@H]1CC[C@@H](Nc2ccc3ccccc3n2)CC1)c1cccc(Br)c1 [Example 3047, 3-Bromo-N-[cis-4-(quinolin-2-ylamino)-cyclohexyl]-benzamide hydrochloride]
> 7.30	O=C(N[C@H]1CC[C@@H](Nc2ccc3ccccc3n2)CC1)c1cccnc1Oc1ccccc1Br [Example 3048, 2-(2-Bromophenoxy)-N-[cis-4-(quinolin-2-ylamino)-cyclohexyl]-nicotinamide hydrochloride]
> 7.30	N#Cc1cccc(C(=O)N[C@H]2CC[C@@H](Nc3ccc4ccccc4n3)CC2)c1 [Example 3049, 3-Cyano-N-[cis-4-(quinolin-2-ylamino)-cyclohexyl]-benzamide hydrochloride]
> 7.30	O=C(N[C@H]1CC[C@@H](Nc2ccc3ccccc3n2)CC1)c1cccc(C(F)(F)F)c1 [Example 3050, N-[cis-4-(Quinolin-2-ylamino)-cyclohexyl]-3-trifluoromethyl-benzamide hydrochloride]
> 7.30	Cc1cccc(OCC(=O)N[C@H]2CC[C@@H](Nc3ccc4ccccc4n3)CC2)c1 [Example 3051, N-[cis-4-(Quinolin-2-ylamino)-cyclohexyl]-2-m-tolyloxy-acetamide hydrochloride]
> 7.30	O=C(N[C@H]1CC[C@@H](Nc2ccc3ccccc3n2)CC1)C(c1ccccc1)c1ccccc1 [Example 3052, 2,2-Diphenyl-N-[cis-4-(quinolin-2-ylamino)-cyclohexyl]-acetamide hydrochloride]
> 7.30	O=C(N[C@H]1CC[C@@H](Nc2ccc3ccccc3n2)CC1)c1ccc(Br)o1 [Example 3053, 5-Bromo-furan-2-carboxylic acid [cis-4-(quinolin-2-ylamino)-cyclohexyl]-amide hydrochloride]
> 7.30	O=C(N[C@H]1CC[C@@H](Nc2ccc3ccccc3n2)CC1)c1cccnc1Oc1ccc(F)cc1 [Example 3054, 2-(4-Fluoro-phenoxy)-N-[cis-4-(quinolin-2-ylamino)-cyclohexyl]-nicotinamide hydrochloride]
> 7.30	O=C(N[C@H]1CC[C@@H](Nc2ccc3ccccc3n2)CC1)c1cccnc1Oc1ccc(F)c(F)c1 [Example 3055, 2-(3,4-Difluoro-phenoxy)-N-[cis-4-(quinolin-2-ylamino)-cyclohexyl]-nicotinamide hydrochloride]
> 7.30	Cc1ccc(Oc2ncccc2C(=O)N[C@H]2CC[C@@H](Nc3ccc4ccccc4n3)CC2)cc1 [Example 3056, N-[cis-4-(Quinolin-2-ylamino)-cyclohexyl]-2-p-tolyloxy-nicotinamide hydrochloride]

Same assay, conditions: FLIPR/FDSS, antagonist activity vs 50 nM MCH; representative examples; read-out: IC50

pIC50	Compound
8.68	Cc1cnc(N[C@H]2CC[C@@H](NC(=O)c3ccc(F)c(F)c3)CC2)nc1N(C)C [Example 2524, N-(cis-4-{[4-(Dimethylamino)-5-methylpyrimidin-2-yl]amino}cyclohexyl)-3,4-difluorobenzamide hydrochloride]
8.12	Cc1cccc(C(=O)N[C@H]2CC[C@@H](Nc3nc(C)cc(N(C)C)n3)CC2)c1 [Example 2526, N-(cis-4-{[4-(Dimethylamino)-6-methylpyrimidin-2-yl]amino}cyclohexyl)-3-methylbenzamide trifluoroacetate]

From patent US20050197350A1, “Novel quinoline, tetrahydroquinazoline, and pyrimidine derivatives and methods of treatment related to the use thereof” (TAISHO PHARMACEUTICAL CO., LTD., priority 2003, published 2005)
